Experimental data: patent US4711952A, “Serum thymic factor peptide analogs and process for the preparation thereof” (SPOFA, spojene podniky pro zdravotnickouvyrobu, priority 1984, dated 1987)
Non-standard residues stand in square brackets, D forms with d. Residues, ends and D or L forms follow the SMILES beside them. No end group written: not given here. pGlu = O=C1CC[C@@H](C(=O)O)N1

System: Flymphocytes
Assay: Recovery assay of Flymphocytes (in vitro)
Assay type: cell-based
Settings: positive for immunostimulation and negative for immunosuppression
Source text: As is evident from the general formula I in comparison with the above structure of the natural substance, the compounds of the present invention, besides optional shortening at the N-terminus, comprise a C-terminal augmentation predominantly by an additional amino-acid residue or residues bearing an amide moiety.

Compound	Recovery Assay of Flymbocytes differential count
C[C@H](NC(=O)[C@@H]1CCC(=O)N1)C(=O)N[C@@H](CCCCN)C(=O)N[C@@H](CO)C(=O)N[C@@H](CCC(N)=O)C(=O)NCC(=O)NCC(=O)N[C@@H](CO)C(=O)N[C@@H](CC(N)=O)C(=O)NCC(N)=O ([pGlu]AKSQGGSNG-NH2)	6.31%
C[C@H](NC(=O)[C@@H]1CCC(=O)N1)C(=O)N[C@@H](CCCCN)C(=O)N[C@@H](CO)C(=O)N[C@@H](CCC(N)=O)C(=O)NCC(=O)NCC(=O)N[C@@H](CO)C(=O)N[C@@H](CC(N)=O)C(=O)N[C@@H](Cc1ccccc1)C(N)=O [p-Glu--D-Gln--E--PheNH2, Pyroglutamyl-alanyl-lysyl-seryl-glutaminyl-glycyl-glycyl-seryl-asparaginyl-phenylalanine amide] ([pGlu]AKSQGGSNF-NH2)	7.54%
NC(=O)CNC(=O)[C@H](CC(N)=O)NC(=O)[C@H](CO)NC(=O)CNC(=O)CNC(=O)[C@@H]1CCC(=O)N1 [p-Glu--E--GlyNH2, Pyroglutamyl-glycyl-glycyl-seryl-asparaginyl-glycine amide] ([pGlu]GGSNG-NH2)	6.35%
NC(=O)C[C@H](NC(=O)[C@H](CO)NC(=O)CNC(=O)CNC(=O)[C@@H]1CCC(=O)N1)C(=O)N[C@@H](Cc1ccccc1)C(N)=O [p-Glu--E--PheNH2, Pyroglutamyl-glycyl-glycyl-seryl-asparaginyl-phenylalanine amide] ([pGlu]GGSNF-NH2)	2.89%
AKSQGGSNF-NH2 [D-Gln--E--PheNH2, Alanyl-lysyl-seryl-glutaminyl-glycyl-glycyl-seryl-asparaginyl-phenylalanine amide]	16.09%
AKSQGGSNG-NH2 [D-Gln--E--GlyNH2, Alanyl-lysyl-seryl-glutaminyl-glycyl-glycyl-seryl-asparaginyl-glycine amide]	12.75%
